From the supplement of paper PMC13380429

Tests used:
Settings in all cases: 72 h
[1] = system: U2OS; assay: relative viability EC50 (midpoint between 100% and the lowest measured viability); higher = less toxic
[2] = system: Calu-3; assay: as above
[3] = system: Vero E6; assay: as above
[4] = system: Caco-2; assay: as above
[5] = system: HepG2; assay: as above
[6] = system: U2OS; assay: cell viability relative to DMSO; higher = less toxic
[7] = system: Calu-3; assay: as above
[8] = system: Vero E6; assay: as above
[9] = system: Caco-2; assay: as above
[10] = system: HepG2; assay: as above
[11] = system: U2OS; assay: drug sensitivity score (DSS) for viability; higher = more toxic; extreme values may be limits of the assay
[12] = system: Calu-3; assay: as above
[13] = system: Vero E6; assay: as above
[14] = system: Caco-2; assay: as above
[15] = system: HepG2; assay: as above

| SMILES | relative viability EC50 [1] [µM] | relative viability EC50 [2] [µM] | relative viability EC50 [3] [µM] | relative viability EC50 [4] [µM] | relative viability EC50 [5] [µM] | cell viability ([6]; 1 nM) [%] | cell viability ([6]; 10 nM) [%] | cell viability ([6]; 100 nM) [%] | cell viability ([6]; 1000 nM) [%] | cell viability ([6]; 10000 nM) [%] | cell viability ([7]; 1 nM) [%] | cell viability ([7]; 10 nM) [%] | cell viability ([7]; 100 nM) [%] | cell viability ([7]; 1000 nM) [%] | cell viability ([7]; 10000 nM) [%] | cell viability ([8]; 1 nM) [%] | cell viability ([8]; 10 nM) [%] | cell viability ([8]; 100 nM) [%] | cell viability ([8]; 1000 nM) [%] | cell viability ([8]; 10000 nM) [%] | cell viability ([9]; 1 nM) [%] | cell viability ([9]; 10 nM) [%] | cell viability ([9]; 100 nM) [%] | cell viability ([9]; 1000 nM) [%] | cell viability ([9]; 10000 nM) [%] | cell viability ([10]; 1 nM) [%] | cell viability ([10]; 10 nM) [%] | cell viability ([10]; 100 nM) [%] | cell viability ([10]; 1000 nM) [%] | cell viability ([10]; 10000 nM) [%] | drug sensitivity score [11] | drug sensitivity score [12] | drug sensitivity score [13] | drug sensitivity score [14] | drug sensitivity score [15] |
| --- | --- | --- | --- | --- | --- | --- | --- | --- | --- | --- | --- | --- | --- | --- | --- | --- | --- | --- | --- | --- | --- | --- | --- | --- | --- | --- | --- | --- | --- | --- | --- | --- | --- | --- | --- |
| CCOc1ccccc1OC(c1ccccc1)C1CNCCO1 (stereo not given) [reboxetine] | > 10 | > 10 | > 10 | > 10 | > 10 | 101 | 101 | 98.8 | 101 | 104 | 107 | 96.5 | 99.4 | 104 | 94.3 | 102 | 102 | 102 | 98.4 | 95.6 | 104 | 97.9 | 97.1 | 104 | 104 | 105 | 121 | 95.5 | 106 | 102 | 0 | 0 | 0 | 0 | 0 |
| O=C(Nc1c(Cl)cncc1Cl)c1ccc(OC(F)F)c(OCC2CC2)c1 [roflumilast] | > 10 | > 10 | > 10 | > 10 | > 10 | 96.4 | 98.5 | 94.2 | 94.8 | 99.5 | 89.1 | 107 | 94.2 | 93.8 | 98.6 | 101 | 91.2 | 99.3 | 102 | 103 | 104 | 101 | 97.3 | 100 | 101 | 106 | 96.9 | 101 | 101 | 128 | 0 | 0 | 0 | 0 | 0 |
| C[C@@H]1O[C@@H](OC[C@H]2O[C@@H](Oc3c(-c4ccc(O)c(O)c4)oc4cc(O)cc(O)c4c3=O)[C@H](O)[C@@H](O)[C@@H]2O)[C@H](O)[C@H](O)[C@H]1O [rutin] | > 10 | > 10 | > 10 | > 10 | > 10 | 101 | 107 | 96.1 | 98.5 | 102 | 107 | 90.4 | 102 | 85.9 | 101 | 98.6 | 100 | 98.8 | 111 | 104 | 118 | 98.9 | 115 | 101 | 113 | 104 | 101 | 86 | 106 | 98.1 | 0 | 0 | 0 | 0 | 0 |
| NC(=O)c1ccccc1O [salicylamide] | > 10 | > 10 | > 10 | > 10 | > 10 | 97.9 | 108 | 95.6 | 102 | 98.9 | 105 | 105 | 92 | 100 | 104 | 98 | 93.9 | 102 | 97.9 | 93 | 93.6 | 99 | 78.2 | 84.8 | 79.2 | 98.5 | 99.6 | 98.5 | 91.2 | 99.7 | 0 | 0 | 0 | 5.7 | 0 |
| COCCNC(=O)Cn1cnc([N+](=O)[O-])n1 [sanazole] | > 10 | > 10 | > 10 | > 10 | > 10 | 98.3 | 104 | 96.7 | 97.7 | 95.8 | 96.7 | 106 | 97.6 | 102 | 103 | 99.5 | 99.1 | 95.7 | 101 | 96.6 | 93 | 99.6 | 95.9 | 93.9 | 93.4 | 103 | 93.3 | 102 | 95.7 | 97.6 | 0 | 0 | 0 | 0 | 0 |
| CC(=O)Nc1ccc(S(=O)(=O)Nc2ccc([N+](=O)[O-])cc2)cc1 [sulfanitran] | > 10 | > 10 | > 10 | > 10 | > 10 | 97.6 | 106 | 98.7 | 105 | 102 | 96.5 | 105 | 103 | 89 | 98.9 | 101 | 94.5 | 97 | 97.1 | 104 | 99 | 96.6 | 97.9 | 92.9 | 99.1 | 104 | 94.5 | 105 | 95 | 109 | 0 | 0 | 0 | 0 | 0 |
| O[C@H]1[C@H]2[C@H](O)CCCN2C[C@H]1O [swainsonine] | > 10 | > 10 | > 10 | > 10 | > 10 | 95.8 | 103 | 98.5 | 105 | 92.3 | 97.5 | 104 | 91.1 | 88.7 | 87.1 | 112 | 97 | 97.5 | 83.7 | 88.1 | 79 | 95.1 | 86.8 | 81.5 | 81.7 | 110 | 96.4 | 90.9 | 88.9 | 94.2 | 0 | 1.3 | 2 | 0 | 0.5 |
| COc1cc2c(cc1OC)CN(CCc1ccc(NC(=O)c3cc(OC)c(OC)cc3NC(=O)c3cnc4ccccc4c3)cc1)CC2 [tariquidar] | > 10 | > 10 | > 10 | > 10 | > 10 | 94.9 | 100 | 97.2 | 103 | 103 | 93.5 | 94.6 | 84 | 101 | 103 | 105 | 94.5 | 96.8 | 96.4 | 107 | 89.2 | 94.2 | 99.8 | 95.3 | 108 | 102 | 90.9 | 108 | 93.5 | 105 | 0 | 0 | 0 | 0 | 0 |
| CC(C)(C)c1ccc(C(O)CCCN2CCC(C(O)(c3ccccc3)c3ccccc3)CC2)cc1 (stereo not given) [terfenadine] | > 10 | > 10 | > 10 | > 10 | > 10 | 98.1 | 101 | 96.5 | 99.7 | 97.8 | 97.6 | 115 | 97.3 | 104 | 106 | 107 | 97.3 | 109 | 101 | 100 | 77.3 | 100 | 76.3 | 101 | 80.2 | 108 | 117 | 103 | 96.9 | 99.8 | 0 | 0 | 0 | 2.4 | 0 |
| O=C1CCC(N2C(=O)c3ccccc3C2=O)C(=O)N1 (stereo not given) [thalidomide] | > 10 | > 10 | > 10 | > 10 | > 10 | 101 | 95.4 | 100 | 95 | 98.6 | 89.8 | 92.1 | 92.2 | 93.6 | 97.9 | 103 | 102 | 93.9 | 97.3 | 96.1 | 89.6 | 91.9 | 90.9 | 94.7 | 94.9 | 102 | 99.8 | 89.4 | 99.1 | 97.8 | 0 | 0 | 0 | 0 | 0 |
| Clc1ccccc1CN1CCc2sccc2C1 [ticlopidine] | > 10 | > 10 | > 10 | > 10 | > 10 | 98.9 | 91.5 | 97.2 | 102 | 108 | 101 | 98.3 | 99.6 | 91.7 | 101 | 89 | 97.9 | 98 | 95.6 | 105 | 91.9 | 102 | 93.5 | 93.4 | 99.8 | 97.5 | 93 | 107 | 106 | 94.9 | 0 | 0 | 0 | 0 | 0 |
| NC1CCN(c2nc3c(cc2F)c(=O)c(C(=O)O)cn3-c2ccc(F)cc2F)C1 (stereo not given) [tosufloxacin] | > 10 | > 10 | > 10 | > 10 | > 10 | 97.3 | 104 | 98.6 | 102 | 95 | 95.1 | 103 | 101 | 103 | 124 | 101 | 101 | 108 | 101 | 99.7 | 96 | 99.9 | 111 | 99.4 | 81.7 | 88.1 | 87.6 | 95.9 | 96.3 | 78.6 | 0 | 0 | 0 | 0.5 | 0 |
| N[C@@H](Cc1c[nH]c2ccccc12)C(=O)O [tryptophan] | > 10 | > 10 | > 10 | > 10 | > 10 | 97.2 | 101 | 101 | 99.1 | 98.1 | 106 | 97.1 | 107 | 107 | 103 | 99.7 | 108 | 94.4 | 91.3 | 99.8 | 105 | 96.6 | 85.7 | 110 | 97.5 | 88.3 | 95.1 | 103 | 88.9 | 100 | 0 | 0 | 0 | 0 | 0 |
| CC(C)(C)c1cc(C=C(C#N)C#N)cc(C(C)(C)C)c1O [tyrphostin-A9] | 2.18 | 2.12 | 2.91 | 1.29 | 1.45 | 106 | 97.9 | 100 | 90.6 | 22.4 | 97.4 | 96.3 | 99 | 92.8 | 44.1 | 100 | 106 | 97.8 | 97.2 | 17.5 | 96.5 | 98.3 | 95.8 | 70.1 | 20.5 | 104 | 101 | 98.7 | 74.3 | 8.9 | 5.9 | 4.2 | 5 | 8.1 | 8.9 |
